Assay results: PubChem BioAssay AID1918946 (Molecular Pharmacology Branch, DTP, NCI, 2023)
pIC50: −log10 of the molar value.

Test system: 885512-296-R-J2-PDC complex spheroid viability
Test: Anticancer human tumor 885512-296-R-J2-PDC patient-derived breast carcinoma cell line growth inhibition
Conditions: for pIC50: curve of first compound; for viability, T/C: stronger effect = lower value; active means viability on the fitted dose curve at most 10% of control; inactive means the rest
Procedure, shortened: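 Multicellular complex spheroids of tumor cells with human endothelial cells (HUVEC) and mesenchymal stem cells; the LSD1 inhibitor iadademstat was combined with standard-of-care or investigational agents. Top concentration at or near clinical Cmax, half-log dilutions; final DMSO ≤0.25%.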

[1] = second compound 0.1 µM, first compound 0.0316 µM
[2] = second compound 0.1 µM, first compound 0.1 µM
[3] = second compound 0.1 µM, first compound 0.316 µM
[4] = second compound 0.1 µM, first compound 1 µM
[5] = second compound 0.1 µM, first compound 3.16 µM
[6] = second compound 0.1 µM, first compound 10 µM
[7] = second compound 0.316 µM, first compound 0.0316 µM
[8] = second compound 0.316 µM, first compound 0.1 µM
[9] = second compound 0.316 µM, first compound 0.316 µM
[10] = second compound 0.316 µM, first compound 1 µM
[11] = second compound 0.316 µM, first compound 3.16 µM
[12] = second compound 0.316 µM, first compound 10 µM
[13] = second compound 1 µM, first compound 0.0316 µM
[14] = second compound 1 µM, first compound 0.1 µM
[15] = second compound 1 µM, first compound 0.316 µM
[16] = second compound 1 µM, first compound 1 µM
[17] = second compound 1 µM, first compound 3.16 µM
[18] = second compound 1 µM, first compound 10 µM
[19] = second compound 3.16 µM, first compound 0.0316 µM
[20] = second compound 3.16 µM, first compound 0.1 µM
[21] = second compound 3.16 µM, first compound 0.316 µM
[22] = second compound 3.16 µM, first compound 1 µM
[23] = second compound 3.16 µM, first compound 3.16 µM
[24] = second compound 3.16 µM, first compound 10 µM
[25] = second compound 10 µM, first compound 0.0316 µM
[26] = second compound 10 µM, first compound 0.1 µM
[27] = second compound 10 µM, first compound 0.316 µM
[28] = second compound 10 µM, first compound 1 µM
[29] = second compound 10 µM, first compound 3.16 µM
[30] = second compound 10 µM, first compound 10 µM
[31] = second compound 0.1 µM, first compound 0.00949 µM
[32] = second compound 0.1 µM, first compound 0.03 µM
[33] = second compound 0.1 µM, first compound 0.0949 µM
[34] = second compound 0.1 µM, first compound 0.3 µM
[35] = second compound 0.316 µM, first compound 0.00949 µM
[36] = second compound 0.316 µM, first compound 0.03 µM
[37] = second compound 0.316 µM, first compound 0.0949 µM
[38] = second compound 0.316 µM, first compound 0.3 µM
[39] = second compound 1 µM, first compound 0.00949 µM
[40] = second compound 1 µM, first compound 0.03 µM
[41] = second compound 1 µM, first compound 0.0949 µM
[42] = second compound 1 µM, first compound 0.3 µM
[43] = second compound 3.16 µM, first compound 0.00949 µM
[44] = second compound 3.16 µM, first compound 0.03 µM
[45] = second compound 3.16 µM, first compound 0.0949 µM
[46] = second compound 3.16 µM, first compound 0.3 µM
[47] = second compound 10 µM, first compound 0.00949 µM
[48] = second compound 10 µM, first compound 0.03 µM
[49] = second compound 10 µM, first compound 0.0949 µM
[50] = second compound 10 µM, first compound 0.3 µM
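Further: spheroids exposed to agents for 7 days before viability read.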

CC1(C)CCC(CN2CCN(c3ccc(C(=O)NS(=O)(=O)c4ccc(NCC5CCOCC5)c([N+](=O)[O-])c4)c(Oc4cnc5[nH]ccc5c4)c3)CC2)=C(c2ccc(Cl)cc2)C1 + NC1CC1c1ccc(-c2cccc(O)c2)cc1
6.00: pIC50 (second compound 10 µM)
inactive: viability, T/C [1] 118% | viability, T/C [2] 111% | viability, T/C [3] 105% | viability, T/C [4] 76.4% | viability, T/C [5] 23.9% | viability, T/C [7] 122% | viability, T/C [8] 112% | viability, T/C [9] 105% | viability, T/C [10] 82.3% | viability, T/C [11] 20.8% | viability, T/C [13] 115% | viability, T/C [14] 116% | viability, T/C [15] 105% | viability, T/C [16] 79.9% | viability, T/C [17] 24.4% | viability, T/C [19] 103% | viability, T/C [20] 103% | viability, T/C [21] 101% | viability, T/C [22] 68.4% | viability, T/C [23] 17.6% | viability, T/C [25] 83.1% | viability, T/C [26] 78.8% | viability, T/C [27] 70.5% | viability, T/C [28] 52.1% | viability, T/C [29] 12.4%
5.74: pIC50 (second compound 0.316 µM)
active: viability, T/C [6] 0.12% | viability, T/C [12] 0.11% | viability, T/C [18] 0.22% | viability, T/C [24] 0.11% | viability, T/C [30] 0.15%
5.73: pIC50 (second compound 1 µM)
5.75: pIC50 (second compound 0.1 µM)
5.82: pIC50 (second compound 3.16 µM)

CC1COCCN1c1cc(C2(S(C)(=N)=O)CC2)nc(-c2ccnc3[nH]ccc23)n1 (stereo not given) + NC1CC1c1ccc(-c2cccc(O)c2)cc1
6.67: pIC50 (second compound 10 µM)
inactive: viability, T/C [1] 110% | viability, T/C [2] 116% | viability, T/C [3] 76.1% | viability, T/C [4] 11.1% | viability, T/C [7] 139% | viability, T/C [8] 112% | viability, T/C [9] 72.3% | viability, T/C [10] 10.7% | viability, T/C [13] 118% | viability, T/C [14] 113% | viability, T/C [15] 52.3% | viability, T/C [19] 114% | viability, T/C [20] 101% | viability, T/C [21] 63.1% | viability, T/C [22] 9.16% | viability, T/C [25] 79.9% | viability, T/C [26] 76.5% | viability, T/C [27] 37%
6.33: pIC50 (second compound 0.316 µM)
active: viability, T/C [5] 3.64% | viability, T/C [6] 2.7% | viability, T/C [11] 3.33% | viability, T/C [12] 2.63% | viability, T/C [16] 8.24% | viability, T/C [17] 3.25% | viability, T/C [18] 2.72% | viability, T/C [23] 3.38% | viability, T/C [24] 2.43% | viability, T/C [28] 8.1% | viability, T/C [29] 3.13% | viability, T/C [30] 2.67%
6.30: pIC50 (second compound 0.1 µM)
6.39: pIC50 (second compound 3.16 µM)
6.47: pIC50 (second compound 1 µM)

CCN(c1cc(-c2ccc(CN3CCOCC3)cc2)cc(C(=O)NCc2c(C)cc(C)[nH]c2=O)c1C)C1CCOCC1 + NC1CC1c1ccc(-c2cccc(O)c2)cc1
active: viability, T/C (second compound 0.316 µM, first compound 3 µM) 7.17% | viability, T/C (second compound 1 µM, first compound 3 µM) 6.44% | viability, T/C (second compound 3.16 µM, first compound 3 µM) 7.23% | viability, T/C (second compound 10 µM, first compound 3 µM) 6.35%
6.80: pIC50 (second compound 0.1 µM)
inactive: viability, T/C [31] 106% | viability, T/C [32] 108% | viability, T/C [33] 67.2% | viability, T/C [34] 26.9% | viability, T/C (second compound 0.1 µM, first compound 0.949 µM) 19.2% | viability, T/C (second compound 0.1 µM, first compound 3 µM) 7.41% | viability, T/C [35] 120% | viability, T/C [36] 103% | viability, T/C [37] 65.8% | viability, T/C [38] 31.9% | viability, T/C (second compound 0.316 µM, first compound 0.949 µM) 16.2% | viability, T/C [39] 120% | viability, T/C [40] 105% | viability, T/C [41] 60.6% | viability, T/C [42] 31.1% | viability, T/C (second compound 1 µM, first compound 0.949 µM) 16.7% | viability, T/C [43] 100% | viability, T/C [44] 86.6% | viability, T/C [45] 63.2% | viability, T/C [46] 31.6% | viability, T/C (second compound 3.16 µM, first compound 0.949 µM) 16.8% | viability, T/C [47] 84% | viability, T/C [48] 78.7% | viability, T/C [49] 48.2% | viability, T/C [50] 21.1% | viability, T/C (second compound 10 µM, first compound 0.949 µM) 12.8%
6.82: pIC50 (second compound 1 µM) | pIC50 (second compound 3.16 µM)
6.78: pIC50 (second compound 0.316 µM)
7.03: pIC50 (second compound 10 µM)

Cn1ncnc1C1c2n[nH]c(=O)c3cc(F)cc(c23)NC1c1ccc(F)cc1 (stereo not given) + NC1CC1c1ccc(-c2cccc(O)c2)cc1
7.39: pIC50 (second compound 1 µM)
7.26: pIC50 (second compound 0.1 µM)
7.29: pIC50 (second compound 0.316 µM)
inactive: viability, T/C (second compound 0.1 µM, first compound 0.000316 µM) 138% | viability, T/C (second compound 0.1 µM, first compound 0.001 µM) 114% | viability, T/C (second compound 0.1 µM, first compound 0.00316 µM) 98.7% | viability, T/C (second compound 0.1 µM, first compound 0.01 µM) 86.2% | viability, T/C [1] 63.6% | viability, T/C [2] 35.8% | viability, T/C (second compound 0.316 µM, first compound 0.000316 µM) 112% | viability, T/C (second compound 0.316 µM, first compound 0.001 µM) 121% | viability, T/C (second compound 0.316 µM, first compound 0.00316 µM) 97% | viability, T/C (second compound 0.316 µM, first compound 0.01 µM) 89.2% | viability, T/C [7] 64.3% | viability, T/C [8] 30.3% | viability, T/C (second compound 1 µM, first compound 0.000316 µM) 118% | viability, T/C (second compound 1 µM, first compound 0.001 µM) 114% | viability, T/C (second compound 1 µM, first compound 0.00316 µM) 101% | viability, T/C (second compound 1 µM, first compound 0.01 µM) 86.3% | viability, T/C [13] 53.7% | viability, T/C [14] 32.3% | viability, T/C (second compound 3.16 µM, first compound 0.000316 µM) 105% | viability, T/C (second compound 3.16 µM, first compound 0.001 µM) 110% | viability, T/C (second compound 3.16 µM, first compound 0.00316 µM) 94.2% | viability, T/C (second compound 3.16 µM, first compound 0.01 µM) 77.4% | viability, T/C [19] 46.7% | viability, T/C [20] 27.2% | viability, T/C (second compound 10 µM, first compound 0.000316 µM) 72.4% | viability, T/C (second compound 10 µM, first compound 0.001 µM) 80.2% | viability, T/C (second compound 10 µM, first compound 0.00316 µM) 70.5% | viability, T/C (second compound 10 µM, first compound 0.01 µM) 55.5% | viability, T/C [25] 39.1% | viability, T/C [26] 20.5%
7.81: pIC50 (second compound 10 µM)
7.55: pIC50 (second compound 3.16 µM)

Nc1ncn(C2CC(O)C(CO)S2)c(=O)n1 (stereo not given) + NC1CC1c1ccc(-c2cccc(O)c2)cc1
8.34: pIC50 (second compound 0.1 µM)
inactive: viability, T/C (second compound 0.1 µM, first compound 0.000949 µM) 91.2% | viability, T/C (second compound 0.1 µM, first compound 0.003 µM) 62% | viability, T/C [31] 29.4% | viability, T/C [32] 15.9% | viability, T/C (second compound 0.316 µM, first compound 0.000949 µM) 84.1% | viability, T/C (second compound 0.316 µM, first compound 0.003 µM) 60.6% | viability, T/C [35] 26.1% | viability, T/C [36] 14.8% | viability, T/C (second compound 1 µM, first compound 0.000949 µM) 75% | viability, T/C (second compound 1 µM, first compound 0.003 µM) 60.4% | viability, T/C [39] 29.5% | viability, T/C [40] 13.8% | viability, T/C (second compound 3.16 µM, first compound 0.000949 µM) 61.6% | viability, T/C (second compound 3.16 µM, first compound 0.003 µM) 50.2% | viability, T/C [43] 25.9% | viability, T/C [44] 12.9% | viability, T/C (second compound 10 µM, first compound 0.000949 µM) 50.1% | viability, T/C (second compound 10 µM, first compound 0.003 µM) 39.8% | viability, T/C [47] 17.2%
8.37: pIC50 (second compound 0.316 µM)
8.55: pIC50 (second compound 3.16 µM)
9.00: pIC50 (second compound 10 µM)
active: viability, T/C [33] 8.39% | viability, T/C [34] 4.32% | viability, T/C [37] 8.48% | viability, T/C [38] 4.51% | viability, T/C [41] 7.96% | viability, T/C [42] 4.21% | viability, T/C [45] 6.26% | viability, T/C [46] 4.09% | viability, T/C [48] 9.45% | viability, T/C [49] 5.85% | viability, T/C [50] 3.58%
8.36: pIC50 (second compound 1 µM)
